# Test results taken from PubChem BioAssay AID220 (DTP/NCI, 2004).
# “And” between values parts separate entries of the source, which are not always exact repeats. Identical values can stand only once. Records with an inconclusive call do not appear.
# Test system: CD8F1 mice, subcutaneous mammary adenocarcinoma, T/C%
# Test: NCI In Vivo Anticancer Drug Screen. Data for tumor model Mammary Adenocarcinoma CD8F1 (subcutaneous) in CD8F1
# Details: higher = larger tumour
# In short: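 Mice carrying transplanted tumors received test compound, and survival or tumor size was recorded. Each value is the treated-group measurement divided by the corresponding measurement in vehicle-dosed controls.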
# [1] = endpoint: median tumor weight (est.), dose: 3.12 mg/kg/injection, schedule: Q07DX005 (ip), vehicle: saline with Tween-80
# [2] = endpoint: median tumor weight (est.), dose: 12.5 mg/kg/injection, schedule: Q07DX005 (ip), vehicle: saline with Tween-80
# [3] = endpoint: median tumor weight (est.), dose: 25.0 mg/kg/injection, schedule: Q07DX005 (ip), vehicle: saline with Tween-80
# [4] = endpoint: median tumor weight (est.), dose: 50.0 mg/kg/injection, schedule: Q07DX005 (ip), vehicle: saline with Tween-80
# [5] = endpoint: median tumor weight (est.), dose: 100.0 mg/kg/injection, schedule: Q07DX005 (ip), vehicle: saline with Tween-80
# [6] = endpoint: median tumor weight (est.), dose: 200.0 mg/kg/injection, schedule: Q07DX005 (ip), vehicle: saline with Tween-80
# [7] = endpoint: median tumor weight (est.), dose: 25.0 mg/kg/injection, schedule: Q07DX005 (ip), vehicle: saline
# [8] = endpoint: median tumor weight (est.), dose: 50.0 mg/kg/injection, schedule: Q07DX005 (ip), vehicle: saline
# [9] = endpoint: median tumor weight (est.), dose: 100.0 mg/kg/injection, schedule: Q07DX005 (ip), vehicle: saline
# [10] = endpoint: median tumor weight (est.), dose: 200.0 mg/kg/injection, schedule: Q07DX005 (ip), vehicle: saline
# [11] = endpoint: median tumor weight (est.), dose: 400.0 mg/kg/injection, schedule: Q07DX005 (ip), vehicle: saline with Tween-80
# [12] = endpoint: median tumor weight change, dose: 125.0 mg/kg/injection, schedule: Q01DX001 (ip), vehicle: saline with Tween-80
# [13] = endpoint: median tumor weight (est.), dose: 100.0 mg/kg/injection, schedule: Q07DX005 (ip), vehicle: Klucel (hydroxypropylcellulose) (HPC)
# [14] = endpoint: median tumor weight (est.), dose: 200.0 mg/kg/injection, schedule: Q07DX005 (ip), vehicle: Klucel (hydroxypropylcellulose) (HPC)
compound,measurement,setting,value
C=CC(=O)N1CN(C(=O)C=C)CN(C(=O)C=C)C1,T/C,[1],89 % of control
same,T/C,"endpoint: median tumor weight (est.), dose: 6.25 mg/kg/injection, schedule: Q07DX005 (ip), vehicle: saline with Tween-80",111 % of control
same,T/C,[2],31 % of control
CN(c1ccccc1)P(=O)(N1CC1)N1CC1,T/C,"endpoint: mean tumor weight, dose: 12.5 mg/kg/injection, schedule: Q07DX007 (ip), vehicle: saline",3 % of control
O=C(NP(=O)(N1CC1)N1CC1)c1cc(I)ccc1I,T/C,"endpoint: median tumor weight (est.), dose: 16.0 mg/kg/injection, schedule: Q07DX005 (ip), vehicle: saline with Tween-80",68 % of control
same,T/C,"endpoint: median tumor weight (est.), dose: 32.0 mg/kg/injection, schedule: Q07DX005 (ip), vehicle: saline with Tween-80",77 % of control
same,T/C,"endpoint: median tumor weight (est.), dose: 64.0 mg/kg/injection, schedule: Q07DX005 (ip), vehicle: saline with Tween-80",49 % of control
same,T/C,"endpoint: median tumor weight (est.), dose: 128.0 mg/kg/injection, schedule: Q07DX005 (ip), vehicle: saline with Tween-80",6 % of control
COC(=O)Nc1nc2ccc(SC)cc2c(=O)[nH]1,T/C,"endpoint: median tumor weight change, dose: 125.0 mg/kg/injection, schedule: Q01DX001 (ip), vehicle: Klucel (hydroxypropylcellulose) (HPC)",79 % of control
same,T/C,"endpoint: median tumor weight change, dose: 250.0 mg/kg/injection, schedule: Q01DX001 (ip), vehicle: Klucel (hydroxypropylcellulose) (HPC)",61 % of control
same,T/C,"endpoint: median tumor weight change, dose: 500.0 mg/kg/injection, schedule: Q01DX001 (ip), vehicle: Klucel (hydroxypropylcellulose) (HPC)",57 % of control
Cn1c(=O)[nH]c2nncnc2c1=O,T/C,"endpoint: median tumor weight change, dose: 15.62 mg/kg/injection, schedule: Q01DX001 (ip), vehicle: other",89 % of control
same,T/C,"endpoint: median tumor weight change, dose: 31.25 mg/kg/injection, schedule: Q01DX001 (ip), vehicle: other",88 % of control
same,T/C,"endpoint: median tumor weight change, dose: 62.5 mg/kg/injection, schedule: Q01DX001 (ip), vehicle: other",57 % of control
Nc1nc(N)c2c(ccc3c2ccn3Cc2cccc([N+](=O)[O-])c2)n1,T/C,"endpoint: median tumor weight change, dose: 7.75 mg/kg/injection, schedule: Q01DX001 (ip), vehicle: saline with Tween-80",66 % of control
same,T/C,"endpoint: median tumor weight change, dose: 8.0 mg/kg/injection, schedule: Q01DX001 (ip), vehicle: saline with Tween-80",56 % of control
same,T/C,"endpoint: median tumor weight change, dose: 16.0 mg/kg/injection, schedule: Q01DX001 (ip), vehicle: saline with Tween-80",67 % of control
C[C@H](CCC[C@H](C)OS(=O)(=O)c1ccccc1)OS(=O)(=O)c1ccccc1,T/C,[3],57 % of control
same,T/C,[4],41 % of control
same,T/C,[5],57 % of control
same,T/C,[6],39 % of control
CN(C)c1ccc(C(=C2C=CC(=[N+](C)C)C=C2)c2ccc(N(C)C)cc2)cc1 (tested in a mixture with another compound),T/C,"endpoint: median tumor weight change, dose: 2.5 mg/kg/injection, schedule: Q01DX001 (ip), vehicle: saline with Tween-80",75 % of control
same,T/C,"endpoint: median tumor weight change, dose: 5.0 mg/kg/injection, schedule: Q01DX001 (ip), vehicle: saline with Tween-80",77 % of control
Cc1cn(C2CC3[O][Sn]([c]4ccccc4)([c]4ccccc4)[O]CC3O2)c(=O)[nH]c1=O (stereo not drawn),T/C,[2],73 % of control
same,T/C,"endpoint: median tumor weight (est.), dose: 12.5 mg/kg/injection, schedule: Q07DX005 (ip), vehicle: saline",63 % of control
same,T/C,[3],40 % of control
same,T/C,[7],16 % of control
same,T/C,[4],67 % of control
same,T/C,[8],84 % of control
same,T/C,[5],81 % of control
same,T/C,[9],49 % of control
same,T/C,[6],73 % of control
same,T/C,[10],74 % of control
same,T/C,"endpoint: median tumor weight (est.), dose: 500.0 mg/kg/injection, schedule: Q07DX005 (ip), vehicle: saline with Tween-80",47 % of control
O=CC(=O)c1ccc(O)cc1,T/C,"endpoint: median tumor weight (est.), dose: 12.5 mg/kg/injection, schedule: Q07DX005 (ip), vehicle: suspension in saline",102 % of control
same,T/C,"endpoint: median tumor weight (est.), dose: 25.0 mg/kg/injection, schedule: Q07DX005 (ip), vehicle: suspension in saline",111 % of control
same,T/C,"endpoint: median tumor weight (est.), dose: 50.0 mg/kg/injection, schedule: Q07DX005 (ip), vehicle: suspension in saline",123 % of control
same,T/C,"endpoint: median tumor weight (est.), dose: 100.0 mg/kg/injection, schedule: Q07DX005 (ip), vehicle: suspension in saline",114 % of control
CCOC(=O)C1(c2ccccc2)C(=O)Oc2ccccc21 (stereo not drawn),T/C,[2],84 % of control
same,T/C,[3],69 % of control
same,T/C,[4],97 % of control
same,T/C,[5],119 % of control
same,T/C,[6],113 % of control
same,T/C,[11],70 % of control
same,T/C,[12],82 % of control
same,T/C,"endpoint: median tumor weight change, dose: 500.0 mg/kg/injection, schedule: Q01DX001 (ip), vehicle: saline with Tween-80",71 % of control
same,T/C,"endpoint: median tumor weight change, dose: 1000.0 mg/kg/injection, schedule: Q01DX001 (ip), vehicle: saline with Tween-80",61 % of control
same,T/C,"endpoint: median tumor weight change, dose: 2000.0 mg/kg/injection, schedule: Q01DX001 (ip), vehicle: saline with Tween-80",100 % of control
Cc1cnc(/C=N\NC(N)=S)c2cccc(N)c12,T/C,[1],93 % of control
same,T/C,[2],83 % of control and 94 % of control
same,T/C,[3],54 % of control and 71 % of control
same,T/C,[4],46 % of control and 62 % of control
same,T/C,[5],55 % of control and 66 % of control
CN=C(N)N/N=C(\C)c1ccc2oc3ccc(/C(C)=N/NC(N)=NC)cc3c2c1,T/C,"endpoint: median tumor weight change, dose: 62.5 mg/kg/injection, schedule: Q01DX001 (ip), vehicle: saline with Tween-80",87 % of control
same,T/C,[12],63 % of control
C/C=C/C=C/c1cc2cc3c(c(O)c2c(=O)[nH]1)C1(CC3)C(O)=c2c(=O)c3c(=O)cc(OC)c(=O)c=3c(=O)c2=C1O (stereo not drawn),T/C,"endpoint: median tumor weight change, dose: 2.5 mg/kg/injection, schedule: Q01DX001 (ip), vehicle: DMSO",106 % of control
same,T/C,"endpoint: median tumor weight change, dose: 5.0 mg/kg/injection, schedule: Q01DX001 (ip), vehicle: DMSO",79 % of control
CN1CCN(Cc2nc3cccc4c3c([n+]2[O-])-c2ccccc2-4)CC1,T/C,[2],180 % of control
same,T/C,[3],114 % of control
same,T/C,[4],99 % of control
same,T/C,[5],120 % of control
same,T/C,[6],68 % of control
BrC1c2cccc3cccc(c23)C1Br (stereo not drawn),T/C,[2],113 % of control
same,T/C,[3],88 % of control
same,T/C,[4],111 % of control
same,T/C,[5],117 % of control
same,T/C,[6],85 % of control
Cc1cc(N(CCOS(C)(=O)=O)CCOS(C)(=O)=O)ccc1C=Nc1ccc(-c2nc(Cc3ccccc3)sc2C)cc1,T/C,"endpoint: median tumor weight (est.), dose: 12.5 mg/kg/injection, schedule: Q07DX005 (ip), vehicle: Klucel (hydroxypropylcellulose) (HPC)",18 % of control
same,T/C,[13],4 % of control and 9 % of control
same,T/C,[14],10 % of control
C/C=C(\Cl)C1=CC(=O)C23CC2C2(C)COC1(O)C3(O)O2 (stereo not drawn),T/C,"endpoint: median tumor weight (est.), dose: 6.0 mg/kg/injection, schedule: Q07DX005 (ip), vehicle: saline with Tween-80",90 % of control
NC(=S)N/N=C/c1ccc(O)cn1,T/C,"endpoint: mean tumor weight, dose: 12.5 mg/kg/injection, schedule: Q07DX005 (ip), vehicle: saline with Tween-80",101 % of control
same,T/C,"endpoint: mean tumor weight, dose: 25.0 mg/kg/injection, schedule: Q07DX005 (ip), vehicle: saline with Tween-80",75 % of control
same,T/C,"endpoint: mean tumor weight, dose: 50.0 mg/kg/injection, schedule: Q07DX005 (ip), vehicle: saline with Tween-80",58 % of control
same,T/C,"endpoint: mean tumor weight, dose: 100.0 mg/kg/injection, schedule: Q07DX005 (ip), vehicle: saline with Tween-80",49 % of control
same,T/C,"endpoint: mean tumor weight, dose: 200.0 mg/kg/injection, schedule: Q07DX005 (ip), vehicle: saline with Tween-80",63 % of control
same,T/C,[2],106 % of control
same,T/C,[7],59 % of control
same,T/C,[4],85 % of control
same,T/C,[8],76 % of control
same,T/C,[5],124 % of control
same,T/C,[9],105 % of control
same,T/C,[6],60 % of control
same,T/C,[10],64 % of control
same,T/C,[11],52 % of control
same,T/C,"endpoint: median tumor weight (est.), dose: 400.0 mg/kg/injection, schedule: Q07DX005 (ip), vehicle: saline",44 % of control
same,T/C,"endpoint: median tumor weight (est.), dose: 800.0 mg/kg/injection, schedule: Q07DX005 (ip), vehicle: saline",2 % of control
CCC(C(=O)O)C(=O)O.[NH-]CC1CCCC[N-]1.[Pt+2],T/C,"endpoint: median tumor weight change, dose: 125.0 mg/kg/injection, schedule: Q01DX001 (ip), vehicle: saline",51 % of control
CN(C)/N=N/c1nc[nH]c1C(N)=O,T/C,"endpoint: median tumor weight (est.), dose: 25.0 mg/kg/injection, schedule: Q07DX004 (ip), vehicle: saline",102 % of control
same,T/C,"endpoint: median tumor weight (est.), dose: 25.0 mg/kg/injection, schedule: Q07DX005 (ip), vehicle: Klucel (hydroxypropylcellulose) (HPC)",118 % of control
same,T/C,"endpoint: median tumor weight (est.), dose: 50.0 mg/kg/injection, schedule: Q07DX004 (ip), vehicle: saline",111 % of control
same,T/C,"endpoint: median tumor weight (est.), dose: 50.0 mg/kg/injection, schedule: Q07DX005 (ip), vehicle: Klucel (hydroxypropylcellulose) (HPC)",81 % of control
same,T/C,"endpoint: median tumor weight (est.), dose: 100.0 mg/kg/injection, schedule: Q07DX004 (ip), vehicle: saline",90 % of control
same,T/C,[13],46 % of control
same,T/C,"endpoint: median tumor weight (est.), dose: 200.0 mg/kg/injection, schedule: Q07DX004 (ip), vehicle: saline",62 % of control
same,T/C,[14],26 % of control
same,T/C,"endpoint: median tumor weight (est.), dose: 400.0 mg/kg/injection, schedule: Q07DX004 (ip), vehicle: saline",13 % of control
same,T/C,"endpoint: median tumor weight (est.), dose: 400.0 mg/kg/injection, schedule: Q07DX005 (ip), vehicle: Klucel (hydroxypropylcellulose) (HPC)",16 % of control
